# Results reported in patent US20100047284A1 (priority 2006, published 2010).
# Entries after “also recorded” stand apart in the source; their conditions may differ.
# Columns and labels:
# radial artery rings = assay type: cell-based, Human
# radial artery tissue = assay: spontaneous contractility of radial artery tissue; assay type: cell-based, Human; settings: radial artery tissue (FIG. 11A)
# mammary artery samples = assay type: cell-based, Human
# [1] = test system: endothelial mediated relaxation
# vascular smooth muscle = assay type: cell-based, Human
Compound,effect on angiotensin II-induced contraction (radial artery rings),effect on spontaneous contraction (radial artery tissue),concentration most effective at inhibiting angiotensin II induced contraction (mammary artery samples) [µM],concentration most effective at inhibiting adrenaline-mediated contraction (radial artery rings) [µg/mL],"effect on dose response curves to adrenaline, angiotensin II or PGF2α (radial artery rings)",effect on subsequent vasoconstrictor responses (in words) (radial artery rings),incubation time at which toxin is effective in inhibiting adrenaline-induced vasoconstriction (radial artery rings) [min],"inhibition of contraction, depending on the vasoconstrictor (radial artery rings)",endothelial mediated relaxation after incubation with toxin [1],optimal concentration most effective at reducing contractile activity (vascular smooth muscle)
"CC(COc1ccccc1)N(CCCl)Cc1ccccc1 (stereo not shown) [phenoxybenzamine, Phenoxybenzamine, reference compound]",no inhibitory effect,no effect; also recorded: lack of effect,,,,,,,,
cholera toxin,,,0.57,25,inhibited the contraction,inhibit the maximal contraction force produced and the sensitivity,30,15-50%,no impairment,about 0.6 μM; also recorded: about 51 μg/ml
pertussis toxin,,,,50,inhibited the contraction,inhibit the maximal contraction force produced and the sensitivity,60,20-60%,no impairment,
